System: 299254-011-R-J1-PDC complex spheroid viability
Experiment: Anticancer human tumor 299254-011-R-J1-PDC patient-derived melanoma cell line growth inhibition [POLQ]
Conditions: for IC50: curve of first compound; for viability, T/C: stronger effect = lower value
Procedure, shortened: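 Growth inhibition in 3D: complex spheroids (tumor PDC, HUVEC, MSC) treated with POLQ inhibitor combinations; where Cmax unknown, highest tested concentration 10 microM, except SN-38 at 1 microM.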

[1] = second compound 0.0316 µM, first compound 0.00316 µM
[2] = second compound 0.0316 µM, first compound 0.01 µM
[3] = second compound 0.0316 µM, first compound 0.0316 µM
[4] = second compound 0.0316 µM, first compound 0.1 µM
[5] = second compound 0.1 µM, first compound 0.00316 µM
[6] = second compound 0.1 µM, first compound 0.01 µM
[7] = second compound 0.1 µM, first compound 0.0316 µM
[8] = second compound 0.1 µM, first compound 0.1 µM
[9] = second compound 0.316 µM, first compound 0.00316 µM
[10] = second compound 0.316 µM, first compound 0.01 µM
[11] = second compound 0.316 µM, first compound 0.0316 µM
[12] = second compound 0.316 µM, first compound 0.1 µM
[13] = second compound 1 µM, first compound 0.00316 µM
[14] = second compound 1 µM, first compound 0.01 µM
[15] = second compound 1 µM, first compound 0.0316 µM
[16] = second compound 1 µM, first compound 0.1 µM
[17] = second compound 3.16 µM, first compound 0.00316 µM
[18] = second compound 3.16 µM, first compound 0.01 µM
[19] = second compound 3.16 µM, first compound 0.0316 µM
[20] = second compound 3.16 µM, first compound 0.1 µM
[21] = second compound 10 µM, first compound 0.00316 µM
[22] = second compound 10 µM, first compound 0.01 µM
[23] = second compound 10 µM, first compound 0.0316 µM
[24] = second compound 10 µM, first compound 0.1 µM
[25] = second compound 0.0316 µM, first compound 0.316 µM
[26] = second compound 0.0316 µM, first compound 1 µM
[27] = second compound 0.0316 µM, first compound 3.16 µM
[28] = second compound 0.0316 µM, first compound 10 µM
[29] = second compound 0.1 µM, first compound 0.316 µM
[30] = second compound 0.1 µM, first compound 1 µM
[31] = second compound 0.1 µM, first compound 3.16 µM
[32] = second compound 0.1 µM, first compound 10 µM
[33] = second compound 0.316 µM, first compound 0.316 µM
[34] = second compound 0.316 µM, first compound 1 µM
[35] = second compound 0.316 µM, first compound 3.16 µM
[36] = second compound 0.316 µM, first compound 10 µM
[37] = second compound 1 µM, first compound 0.316 µM
[38] = second compound 1 µM, first compound 1 µM
[39] = second compound 1 µM, first compound 3.16 µM
[40] = second compound 1 µM, first compound 10 µM
[41] = second compound 3.16 µM, first compound 0.316 µM
[42] = second compound 3.16 µM, first compound 1 µM
[43] = second compound 3.16 µM, first compound 3.16 µM
[44] = second compound 3.16 µM, first compound 10 µM
[45] = second compound 10 µM, first compound 0.316 µM
[46] = second compound 10 µM, first compound 1 µM
[47] = second compound 10 µM, first compound 3.16 µM
[48] = second compound 10 µM, first compound 10 µM
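Also: spheroids exposed to drugs for one week before measurement.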
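For viability, T/C in this document: percent viability relative to DMSO vehicle control taken as 100%.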

SMILES: CC[C@@]1(O)C(=O)OCc2c1cc1n(c2=O)Cc2cc3c(CN(C)C)c(O)ccc3nc2-1 + Nc1ccc(C#CCN(C(=O)Cc2ncc(C(F)(F)F)cc2C(F)(F)F)c2ccc(F)cc2)nn1
- IC50 (second compound 0.0316 µM): > 100 nM
- IC50 (second compound 0.1 µM): > 100 nM
- IC50 (second compound 0.316 µM): > 100 nM
- IC50 (second compound 1 µM): > 100 nM
- IC50 (second compound 3.16 µM): > 100 nM
- IC50 (second compound 10 µM): > 100 nM
- viability, T/C (second compound 0.0316 µM, first compound 0.000316 µM): 133%
- viability, T/C (second compound 0.0316 µM, first compound 0.001 µM): 112%
- viability, T/C [1]: 108%
- viability, T/C [2]: 101%
- viability, T/C [3]: 88.5%
- viability, T/C [4]: 77.8%
- viability, T/C (second compound 0.1 µM, first compound 0.000316 µM): 111%
- viability, T/C (second compound 0.1 µM, first compound 0.001 µM): 107%
- viability, T/C [5]: 105%
- viability, T/C [6]: 94.7%
- viability, T/C [7]: 94.8%
- viability, T/C [8]: 84.6%
- viability, T/C (second compound 0.316 µM, first compound 0.000316 µM): 106%
- viability, T/C (second compound 0.316 µM, first compound 0.001 µM): 102%
- viability, T/C [9]: 86.7%
- viability, T/C [10]: 103%
- viability, T/C [11]: 112%
- viability, T/C [12]: 92.9%
- viability, T/C (second compound 1 µM, first compound 0.000316 µM): 99.6%
- viability, T/C (second compound 1 µM, first compound 0.001 µM): 106%
- viability, T/C [13]: 107%
- viability, T/C [14]: 111%
- viability, T/C [15]: 109%
- viability, T/C [16]: 96%
- viability, T/C (second compound 3.16 µM, first compound 0.000316 µM): 94.2%
- viability, T/C (second compound 3.16 µM, first compound 0.001 µM): 112%
- viability, T/C [17]: 95%
- viability, T/C [18]: 96.9%
- viability, T/C [19]: 92.2%
- viability, T/C [20]: 96.6%
- viability, T/C (second compound 10 µM, first compound 0.000316 µM): 102%
- viability, T/C (second compound 10 µM, first compound 0.001 µM): 103%
- viability, T/C [21]: 95%
- viability, T/C [22]: 94.2%
- viability, T/C [23]: 99.6%
- viability, T/C [24]: 68.5%

SMILES: CC1COCCN1c1cc(-c2ccnn2C)c2ccnc(-c3ccn[nH]3)c2n1 (stereo not drawn) + Cc1cccc(N(C)C(=O)C2C(O)CCN2c2nc(C)cc(C(F)(F)F)c2C#N)c1
- IC50 (second compound 0.0316 µM): 246 nM
- IC50 (second compound 0.1 µM): 217 nM
- IC50 (second compound 0.316 µM): 297 nM
- IC50 (second compound 1 µM): 221 nM
- IC50 (second compound 3.16 µM): 158 nM
- IC50 (second compound 10 µM): 153 nM
- viability, T/C [3]: 95.1%
- viability, T/C [4]: 73.4%
- viability, T/C [25]: 42.1%
- viability, T/C [26]: 31.5%
- viability, T/C [27]: 27.3%
- viability, T/C [28]: 22.5%
- viability, T/C [7]: 77.4%
- viability, T/C [8]: 77.2%
- viability, T/C [29]: 36.9%
- viability, T/C [30]: 30.4%
- viability, T/C [31]: 20.2%
- viability, T/C [32]: 19%
- viability, T/C [11]: 104%
- viability, T/C [12]: 73.5%
- viability, T/C [33]: 48.6%
- viability, T/C [34]: 30.8%
- viability, T/C [35]: 23.6%
- viability, T/C [36]: 14.6%
- viability, T/C [15]: 111%
- viability, T/C [16]: 73.1%
- viability, T/C [37]: 38.2%
- viability, T/C [38]: 28.2%
- viability, T/C [39]: 22.1%
- viability, T/C [40]: 19%
- viability, T/C [19]: 82.8%
- viability, T/C [20]: 59.1%
- viability, T/C [41]: 36.5%
- viability, T/C [42]: 24.6%
- viability, T/C [43]: 24.7%
- viability, T/C [44]: 20.1%
- viability, T/C [23]: 76.4%
- viability, T/C [24]: 59.1%
- viability, T/C [45]: 34%
- viability, T/C [46]: 29%
- viability, T/C [47]: 20.7%
- viability, T/C [48]: 19.4%

SMILES: COc1cccc(OCCCN)c1-c1cc(Nc2cnc(C#N)cn2)n[nH]1 + Cc1cccc(N(C)C(=O)C2C(O)CCN2c2nc(C)cc(C(F)(F)F)c2C#N)c1
- IC50 (second compound 0.0316 µM): 188 nM
- IC50 (second compound 0.1 µM): 136 nM
- IC50 (second compound 0.316 µM): 95.4 nM
- IC50 (second compound 1 µM): 207 nM
- IC50 (second compound 3.16 µM): 105 nM
- IC50 (second compound 10 µM): 112 nM
- viability, T/C [1]: 99.2%
- viability, T/C [2]: 108%
- viability, T/C [3]: 71.2%
- viability, T/C [4]: 64.1%
- viability, T/C [25]: 39.6%
- viability, T/C [26]: 42%
- viability, T/C [5]: 92.7%
- viability, T/C [6]: 104%
- viability, T/C [7]: 75.6%
- viability, T/C [8]: 53.7%
- viability, T/C [29]: 49%
- viability, T/C [30]: 38.2%
- viability, T/C [9]: 100%
- viability, T/C [10]: 106%
- viability, T/C [11]: 74.7%
- viability, T/C [12]: 52%
- viability, T/C [33]: 49.2%
- viability, T/C [34]: 45.6%
- viability, T/C [13]: 90.6%
- viability, T/C [14]: 103%
- viability, T/C [15]: 71.1%
- viability, T/C [16]: 65.9%
- viability, T/C [37]: 40.6%
- viability, T/C [38]: 38.9%
- viability, T/C [17]: 120%
- viability, T/C [18]: 107%
- viability, T/C [19]: 72.3%
- viability, T/C [20]: 52.2%
- viability, T/C [41]: 41%
- viability, T/C [42]: 33.9%
- viability, T/C [21]: 103%
- viability, T/C [22]: 85.1%
- viability, T/C [23]: 64.8%
- viability, T/C [24]: 54.1%
- viability, T/C [45]: 37.8%
- viability, T/C [46]: 39.8%

SMILES: COc1ccc([C@@H](O)c2cc(-c3ncnc4cc(N5CCOCC5)ccc34)c(F)cc2Cl)nn1 + Cc1cccc(N(C)C(=O)C2C(O)CCN2c2nc(C)cc(C(F)(F)F)c2C#N)c1
- IC50 (second compound 0.0316 µM): > 10000 nM
- IC50 (second compound 0.1 µM): > 10000 nM
- IC50 (second compound 0.316 µM): 8360 nM
- IC50 (second compound 1 µM): 8800 nM
- IC50 (second compound 3.16 µM): 6800 nM
- IC50 (second compound 10 µM): 5750 nM
- viability, T/C [3]: 105%
- viability, T/C [4]: 102%
- viability, T/C [25]: 96.7%
- viability, T/C [26]: 99%
- viability, T/C [27]: 87.9%
- viability, T/C [28]: 49.6%
- viability, T/C [7]: 90.1%
- viability, T/C [8]: 89.2%
- viability, T/C [29]: 112%
- viability, T/C [30]: 92.5%
- viability, T/C [31]: 95.9%
- viability, T/C [32]: 53.4%
- viability, T/C [11]: 101%
- viability, T/C [12]: 108%
- viability, T/C [33]: 97.9%
- viability, T/C [34]: 86.2%
- viability, T/C [35]: 82.1%
- viability, T/C [36]: 43.6%
- viability, T/C [15]: 108%
- viability, T/C [16]: 97.6%
- viability, T/C [37]: 104%
- viability, T/C [38]: 111%
- viability, T/C [39]: 82.6%
- viability, T/C [40]: 46%
- viability, T/C [19]: 102%
- viability, T/C [20]: 102%
- viability, T/C [41]: 100%
- viability, T/C [42]: 90.2%
- viability, T/C [43]: 77.8%
- viability, T/C [44]: 36.5%
- viability, T/C [23]: 94.6%
- viability, T/C [24]: 82.8%
- viability, T/C [45]: 109%
- viability, T/C [46]: 88.5%
- viability, T/C [47]: 66%
- viability, T/C [48]: 35.3%

Reference: PubChem BioAssay AID1963849 (Molecular Pharmacology Branch, DTP, NCI, 2024)
